Assay results as given in patent publication EP4755393A1, “USE OF PROTON PUMP REGULATOR IN PREPARATION OF DRUG” (Shanghai Quietd Biotechnology Co., Ltd., priority 2023, dated 2025).
“Also recorded” adds a separate entry of the source. Ends that are not written are not given here.

Legend:
[1] = test system: APP/PS1 transgenic mice; assay: Morris water maze test in AD mice; assay type: in vivo; details: continuously for 1 week
[2] = test system: Male SD rats; details: rat, in vivo
[3] = test system: HT22 cells; assay: Quantitative detection of ROS (DCFH-DA) in the oxygen-glucose deprivation (OGD) cell model; assay type: cell-based, Mouse; details: OGD 16 h, 24 h reoxygenation, OGD plus vehicle = 100%, mean ± standard deviation
Experimental: Cell culture: Mouse hippocampal HT22 cells were cultured in DMEM and 10% serum at 37°C in a 5% CO2 incubator.
Oxygen-glucose deprivation (OGD) cell model: HT22 cells were seeded at a density of about 1 ×10^5 into 96-well plates and cultured for 24 h in a 37°C incubator with 5% CO2/95% air in DMEM and 10% serum. After placing HT22 cells in glucose-free medium, they were transferred to a sealed container containing a 5% CO2/95% N2 mixture and incubated at 37°C for 16 h. The glucose-free medium was then replaced with a normal medium containing glucose, and the mixture was incubated for 24 h in a 37°C incubator containing 5% CO2/95% air for reoxygenation.
Experimental grouping: Normally cultured HT22 cells were used as the control group. HT22 cells subjected to OGD were reoxygenated in normal culture medium and treated separately with vehicle, QD202 (0.1 µM, 1 µM, 5 µM), and the ROS scavenger edaravone (200 µM). After 24 h of reoxygenation, quantitative detection of ROS was performed.
Quantitative detection of ROS: Reactive oxygen species were detected using the Beyotime reactive oxygen species detection kit and the fluorescent probe DCFH-DA. DCFH-DA was diluted 1:1000 with serum-free culture medium to a final concentration of 10 µM. The culture medium was removed and the diluted DCFH-DA was added. The cells were then incubated in a 37°C cell culture incubator for 20 min. The cells were washed three times with serum-free cell culture medium to thoroughly remove any DCFH-DA that had not entered the cells. Observation was performed under a fluorescence microscope, followed by quantification of the average fluorescence intensity using Image J software.
Data analysis: Three parallel experiments were performed. The average fluorescence intensity of the OGD plus vehicle group was set as the standard value of 100% for normalization of the fluorescence intensity of cells in each group. Data were expressed as mean ± standard deviation, and […] tests were performed on the data of each group using One-Way ANOVA.

Question: With “QD202: Polypeptide synthesized according to the amino acid sequence set forth in SEQ ID NO: 1; ATP6V1B2 regulator / DIR regulator (YGRKKRRQRRRSPVDVVCS; not fully specified)” as the substance, how does the “learning and cognitive functions in the water maze behavior” value ([1]; intragastric, 6.25 mg/kg, ten-month-old APP/PS1 mice, FIG. 10) read?
Answer: obvious improvement of learning and cognitive functions

Question: And the “learning and cognitive functions in water maze behavior” value ([1]; intravenous injection, 1.25 mg/kg, APP/PS1 mice of 10 months old, FIG. 12)?
Answer: obvious improvement on learning and cognitive functions

Question: And the infarct volume [2]?
Answer: lower than that of the Model + QD202 placebo group, with a statistical difference (p<0.05); also recorded: lower than that of the Model + QD202 placebo group, with extremely significant statistical differences (p<0.001)

Question: And the “inhibition rate of ROS” value ([3]; 0.1 µM)?
Answer: 17.55±12.95%

Question: And the “inhibition rate of ROS” value ([3]; 1 µM)?
Answer: 60.63±8.27%

Question: What about the “inhibition rate of ROS” value ([3]; 5 µM) of the same substance?
Answer: 70.09±2.84%
